Patent US8088756B2, “Methods and compositions for oral delivery of FTS” (Concordia Pharmaceuticals, Inc., priority 2004, dated 2012)

Columns and labels:
[1] = Bioavailability of orally administered FTS formulated in 0.5% aqueous carboxymethylcellulose (plasma FTS by LC/MS); format: in vivo, CD-1 mice; details: CD-1, mouse, 40 mg/kg, mice, gavage, 0.5% aqueous carboxymethylcellulose suspension
Procedure: (§1) FTS (40 Mg) was dispersed in 0.5% aqueous carboxymethylcellulose (10 ml). Aliquots of the resulting suspension were administered by gavage to CD-1 mice (eighteen) at a dose of […] (at a volume of 10 ml/kg of FTS suspension calculated for actual animal weight). Blood samples were collected in lithium heparin tubes via the retro-orbital plexus while under CO2/O2 anesthesia at 1, 2, 4, 8, 12, and 24 hours (3 animals at each time point) after dosing. Aliquots (100 μL) of plasma were mixed with water, pH 11 buffer solution, and acetonitrile. After centrifugation, the supernatant was evaporated to dryness. The residue was re-suspended in water/acetonitrile and centrifuged, and the supernatant was transferred to auto-sampler vials for FTS determination by LC/MS.

[2] = test system: Panc-1 cells; test: Inhibition of pancreatic tumor growth with orally administered FTS (subcutaneous Panc-1 implant); format: in vivo, Nude CD1-Nu Mice; details: for average tumor weight: control 1.02 g
Procedure: Nude CD1-Nu Mice were implanted subcutaneously with 5.0×10^6 Panc-1 cells in 0.2 ml of PBS just above the right femoral joint. Eleven days after implantation, palpable tumors were observed. FTS was dispersed in 0.5% aqueous carboxymethylcellulose at a concentration of 5 mg/ml. On the eleventh day after implantation, mice were segregated into three groups and were given vehicle or FTS suspension by gavage. Group 1 (Controls, 6 mice) received 0.2 ml vehicle daily. Group 2 (20 mg/kg FTS, 7 mice) received 0.1 ml FTS suspension daily. Group 3 (40 mg/kg FTS, 6 mice) received 0.2 ml FTS suspension daily. Mice were treated for ten days, and were sacrificed. Tumors were excised and weighed.

[3] = Bioavailability of orally administered FTS formulated in corn oil (plasma FTS by LC/MS); format: in vivo, CD-1 mice; details: CD-1, mouse, 40 mg/kg, mice, gavage, corn oil suspension
Procedure: as §1, with “mg)” for “Mg)”, “corn oil” for “0.5% aqueous carboxymethylcellulose”, “12” for “12,”, “solution” for “solution,”, “resuspended” for “re-suspended”, “liquid chromatography/mass spectrometry (LC/MS).” for “LC/MS.”
There was a rapid decrease to less than 3 ng/ml after 24 hours.

[4] = Bioavailability of orally administered FTS to rats (plasma FTS by LC/MS); format: in vivo, Crl:CD(SD) (IGS)BR rats; details: oral 200 mg/kg in corn oil (95%) and ethanol (5%)
Procedure: FTS was dissolved in a mixture of corn oil (95%) and ethanol (5%). Aliquots of the resulting solution were administered to Crl:CD(SD) (IGS)BR rats (twenty-four) at a dose of 200 mg/kg. Blood samples were collected in lithium-heparin-containing tubes via the retro-orbital plexus while under CO2/O2 anesthesia at 1, 2, 4, 8, 12 and 24 hours after dosing. Concentration of FTS at each time point was determined by LC/MS.

[5] = Compatibility of FTS with pharmaceutical excipients (accelerated stability, HPLC assay); format: physicochemical; details: 1:1 w/w mixture with FTS, 40° C./75% RH, loosely capped vials
Procedure: Physical mixtures (1:1 w/w) of FTS and representative pharmaceutical excipients commonly used in oral formulations were stored at 40° C./75% RH accelerated stress conditions for four weeks in loosely capped vials. Samples were assayed by HPLC at the 0, 2-week and 4-week time points.

[6] = oral, dose 40 mg/ml (10 ml/kg), 1 hour
[7] = oral, dose 40 mg/ml (10 ml/kg), 2 hours
[8] = oral, dose 40 mg/ml (10 ml/kg), 24 hours
[9] = po, read-out: oral bioavailability compared to intra-peritoneal injection
[10] = 20 mg/kg FTS daily by gavage in 0.5% CMC for ten days
[11] = 40 mg/kg FTS daily by gavage in 0.5% CMC for ten days

- concentration at 1 h [1, 6]: 3380 ng/mL
- concentration at 2 h [1, 7]: 1590 ng/mL
- concentration at 24 h [1, 8]: < 3 ng/mL
- bioavailability [1, 9]: 69%
- concentration at 1 h [3, 6]: 2160 ng/mL
- concentration at 2 h [3, 7]: 1330 ng/mL
- concentration at 24 h [3, 8]: < 3 ng/mL
- bioavailability [3, 9]: 55%
- concentration at 1 h ([4]; Crl:CD(SD) (IGS)BR, rat, plasma, 1 hour): 4450 ng/mL
- concentration at 2 h ([4]; Crl:CD(SD) (IGS)BR, rat, plasma, 2 hours): 4550 ng/mL
- concentration at 4 h ([4]; Crl:CD(SD) (IGS)BR, rat, plasma, 4 hours): 3050 ng/mL
- concentration at 8 h ([4]; Crl:CD(SD) (IGS)BR, rat, plasma, 8 hours): 2220 ng/mL
- concentration at 12 h ([4]; Crl:CD(SD) (IGS)BR, rat, plasma, 12 hours): 685 ng/mL
- concentration at 24 h ([4]; Crl:CD(SD) (IGS)BR, rat, plasma, 24 hours): 140 ng/mL
- oral bioavailability (in words) [4]: high level of oral bioavailability
- HPLC assay, 0 weeks ([5]; 0 weeks, in % (unit assumed)): 97.75
- HPLC assay, 2 weeks ([5]; 2 weeks): 97.1%
- HPLC assay, 4 weeks ([5]; 4 weeks, in % (unit assumed)): 97.76
Compound: CC(C)=CCC/C(C)=C/CC/C(C)=C/CSc1ccccc1C(=O)O [FTS, farnesyl-thiosalicylic acid]
- tumor weight lower than control [2, 10]: 32%
- average tumor weight [2, 10]: 0.68 g
- tumor weight lower than control [2, 11]: 53%
- average tumor weight [2, 11]: 0.47 g
